Results published in publication PMC7414093 (Proceedings of the National Academy of Sciences of the …, 2020).
Several values for one entry are separate records, joined by “and”; a condition that tells them apart may be missing. Equal entries are not always repeated.

Tests used:
MDCK-SIAT1 cells = conditions: for cytotoxic concentration (CC)50: dog
in vitro [1] = conditions: dog, CC50, compound alone, 72 h
Solubility in PBS = assay type: physicochemical; conditions: aqueous buffer
[2] = target: H5 A/Vietnam/1203/2004 HA (Influenza A virus, UniProt Q5EP31); test: biochemical; assay type: binding
[3] = system: H1N1 virus expressing A/Solomon Islands/3/2006 (H1/SI06); test: microbe, parasite or virus in culture; assay type: cell-based, influenza A virus
in vitro [4] = conditions: human, pH 7.4
[5] = system: H1N1 virus expressing A/Beijing/262/1995 (H1/Beijing); test: microbe, parasite or virus in culture; assay type: cell-based; conditions: Influenza A virus, H1N1, 72 h, read-out: EC50, virus neutralization
[6] = system: H5N1 pseudovirus expressing H5 A/Vietnam/1203/2004; test: organism not typed; assay type: cell-based, influenza A virus; conditions: 72 h, read-out: EC50, virus neutralization
human cells = system: human cells; parameters: method as in PMID 30846569; conditions: cited from earlier work

Row | Structure (SMILES) | cytotoxic concentration (CC)50 (MDCK-SIAT1 cells) [µM] | CC50 (in vitro [1]) [µM] | CC50 (MDCK-SIAT1 cells; read-out: CC50, compound alone, 72 h) | solubility (Solubility in PBS) [µM] | EC50 [2] [µM] | protection from infection (in words) [3] | EC50 ([3]; Influenza A virus, H1N1, 72 h, read-out: EC50, virus neutralization) [µM] | k el (in vitro [4]; 0.42 mg) [s⁻¹] | half-life (in vitro [4]; microsomes) [min] | microsomal CLint (in vitro [4]; microsomes) [µL/min/mg] | EC50 [5] [µM] | EC50 [6] [µM] | CC50 (human cells) [µM]
1 | O=C(c1ccc(Cl)cc1Cl)N1CCO[C@H](c2ccccc2)C1 [F0045(R)] | > 130 | 138 | – | – | – | – | – | – | – | – | – | – | –
2 | O=C(c1ccc(Cl)cc1Cl)N1CCO[C@@H](c2ccccc2)C1 [F0045(S)] | > 130 | 102 | 157 µM and 84 µM and 98 µM | > 500 | 16.2 ± 3.4 | did not protect cells from infection | > 150 | 0.000283 | 40.8 | 41 | 1.6 ± 0.1 | 22.8 ± 2.3 | –
3 | CC(=O)Nc1ccc2oc(-c3ccnc(C(=O)N4CCN([C@H](c5ccccc5)c5nnn(C)n5)CC4)c3)nc2c1 [JNJ4796] | – | – | – | – | – | – | – | – | – | – | – | – | > 10
